From US20110189347A1 (priority 2008, published 2011)
Where two headings read alike, the source gives them in different places.

Columns and labels:
[1] = Growth performance of broiler chickens, floor pen trial over five weeks (Example 6); type: in vivo; details: for numerical improvement of weight gain compared to the control: day 1 to day 36
Excerpt: The objective of the present trial (Trial A) was to evaluate the effects of sucinic acid on the growth performance of broiler chickens in a floor pen trial over five weeks. Succinic acid was supplemented at four different dose levels. […] Each group was placed in one floor pen littered with wood shavings and allocated to one of the different treatments. Each treatment was replicated with 4 groups per sex. Birds had ad libitum access to feed and tap water. […] Chickens received diets based on soybean meal, and wheat as main ingredients (Table 6). […] The target quantities of succinic acid were added on top to the feed, mixed with appropriate amounts of maize starch as a carrier: […] For the statistical evaluation of the data, a one-factorial analysis of variance for each diet (factor: treatment) was carried out. Where significant treatment effects (p<0.05) were indicated, the differences among treatment means were subsequently analyzed with the Newman-Keuls test.

Enterococcus faecalis = assay: microbe, parasite or virus in culture
[2] = for Daily feed intake / Live weight of piglets: dietary inclusion 1.0%
Clostridium perfringens = assay: microbe, parasite or virus in culture; type: cell-based
[3] = tested on: Salmonella enterica subsp enterica serovar Enteritidis; assay: microbe, parasite or virus in culture
[4] = tested on: commensal Escherichia coli; assay: microbe, parasite or virus in culture
[5] = tested on: Salmonella enterica subsp enterica serovar Typhimurium; assay: microbe, parasite or virus in culture
[6] = 0.5% in diet, 29 days

Question: For `COC[C@H]1O[C@@H](OC2OC[C@@H]3O[C@]4(O[C@H]3[C@H]2OC(=O)C(C)C)O[C@H](C)[C@@](O)(C(C)=O)[C@@H]2OCO[C@H]24)[C@@H](OC)[C@@H](O)[C@@H]1O[C@@H]1O[C@H](C)[C@H](OC)[C@H](O[C@H]2C[C@@]3(C)OC4(C[C@@H](O)[C@H](O[C@H]5C[C@@H](O)[C@H](OC(=O)c6c(C)c(Cl)c(O)c(Cl)c6OC)[C@@H](C)O5)[C@@H](C)O4)O[C@@H]3[C@@H](C)O2)[C@H]1O` (stereo partly drawn) [Avilamycin, reference compound], which Feed conversion ([1]; Day 1-22, 10 mg/kg feed) is on record?
Answer: 1.462^A g feed/g gain

Question: What about the “Feed conversion, relative to control (100)” value ([1]; Day 1-22, 10 mg/kg feed) of the same molecule?
Answer: 101.0

Question: What about the Feed intake ([1]; Day 1-22, 10 mg/kg feed) of the same molecule?
Answer: 1450^A g

Question: What about the Weight gain ([1]; Day 1-22, 10 mg/kg feed) of the same molecule?
Answer: 992^BC g

Question: And the “Weight gain, relative to control (100)” value ([1]; Day 1-22, 10 mg/kg feed)?
Answer: 104.1

Question: And the Feed conversion ([1]; Day 1-36, 10 mg/kg feed)?
Answer: 1.638^A g feed/g gain

Question: And the “Feed conversion, relative to control (100)” value ([1]; Day 1-36, 10 mg/kg feed)?
Answer: 100.9

Question: And the Feed intake ([1]; Day 1-36, 10 mg/kg feed)?
Answer: 3860^A g

Question: What about the Weight gain ([1]; Day 1-36, 10 mg/kg feed) of the same molecule?
Answer: 2359^A g

Question: And the “Weight gain, relative to control (100)” value ([1]; Day 1-36, 10 mg/kg feed)?
Answer: 102.5

Question: What about the Feed conversion ([1]; Day 22-36, 10 mg/kg feed) of the same molecule?
Answer: 1.769^A g feed/g gain

Question: And the “Feed conversion, relative to control (100)” value ([1]; Day 22-36, 10 mg/kg feed)?
Answer: 101.1

Question: What about the Feed intake ([1]; Day 22-36, 10 mg/kg feed) of the same molecule?
Answer: 2412^A g

Question: What about the Weight gain ([1]; Day 22-36, 10 mg/kg feed) of the same molecule?
Answer: 1366^A g

Question: And the “Weight gain, relative to control (100)” value ([1]; Day 22-36, 10 mg/kg feed)?
Answer: 101.4

Question: With `O=C(O)CCC(=O)O` [Succinic acid, succinic acid] as the molecule, how does the MIC90 (Enterococcus faecalis) read?
Answer: < 31.2 mM

Question: And the Daily feed intake ([2]; Day 0-14)?
Answer: 368 g

Question: And the Daily feed intake ([2]; Day 14-24)?
Answer: 649 g

Question: What about the “Live weight of piglets” value ([2]; Day 14) of the same molecule?
Answer: 12.01 kg

Question: What about the Daily feed intake ([2]; Day 24-36) of the same molecule?
Answer: 869 g

Question: What about the “Live weight of piglets” value ([2]; Day 24) of the same molecule?
Answer: 16.90 kg

Question: What about the “Live weight of piglets” value ([2]; Final, day 36) of the same molecule?
Answer: 24.32 kg

Question: What about the “Live weight of piglets” value ([2]; Initial, day 0) of the same molecule?
Answer: 8.51 kg

Question: What about the Daily feed intake ([2]; Overall, day 0-36) of the same molecule?
Answer: 613 g

Question: And the “reduction of feed intake versus control” value ([2]; day 0-14, dietary level of 1.0%)?
Answer: −25.4%

Question: And the MIC90 (Clostridium perfringens)?
Answer: < 31.2 mM

Question: And the MIC90 [3]?
Answer: < 31.2 mM

Question: What about the MIC90 [4] of the same molecule?
Answer: < 31.2 mM

Question: What about the MIC90 [5] of the same molecule?
Answer: < 31.2 mM

Question: And the Feed conversion ([1]; Day 1-22, 2.5 g/kg feed)?
Answer: 1.365^B g feed/g gain

Question: And the Feed intake ([1]; Day 1-22, 2.5 g/kg feed)?
Answer: 1427^A g

Question: And the Weight gain ([1]; Day 1-22, 2.5 g/kg feed)?
Answer: 1046^A g

Question: And the Feed conversion ([1]; Day 1-22, 5 g/kg feed)?
Answer: 1.461^A g feed/g gain

Question: And the Feed intake ([1]; Day 1-22, 5 g/kg feed)?
Answer: 1446^A g

Question: What about the Weight gain ([1]; Day 1-22, 5 g/kg feed) of the same molecule?
Answer: 991^BC g

Question: And the Feed conversion ([1]; Day 1-22, 7.5 g/kg feed)?
Answer: 1.372^B g feed/g gain

Question: And the Feed intake ([1]; Day 1-22, 7.5 g/kg feed)?
Answer: 1445^A g

Question: And the Weight gain ([1]; Day 1-22, 7.5 g/kg feed)?
Answer: 1054^A g

Question: And the Feed conversion ([1]; Day 1-22, 10 g/kg feed)?
Answer: 1.381^B g feed/g gain

Question: And the Feed intake ([1]; Day 1-22, 10 g/kg feed)?
Answer: 1430^A g

Question: And the Weight gain ([1]; Day 1-22, 10 g/kg feed)?
Answer: 1036^AB g

Question: And the Feed conversion ([1]; Day 1-36, 2.5 g/kg feed)?
Answer: 1.602^A g feed/g gain

Question: And the Feed intake ([1]; Day 1-36, 2.5 g/kg feed)?
Answer: 3817^A g

Question: And the Weight gain ([1]; Day 1-36, 2.5 g/kg feed)?
Answer: 2383^A g

Question: What about the Feed conversion ([1]; Day 1-36, 5 g/kg feed) of the same molecule?
Answer: 1.642^A g feed/g gain

Question: What about the Feed intake ([1]; Day 1-36, 5 g/kg feed) of the same molecule?
Answer: 3793^A g

Question: What about the Weight gain ([1]; Day 1-36, 5 g/kg feed) of the same molecule?
Answer: 2311^A g

Question: What about the Feed conversion ([1]; Day 1-36, 7.5 g/kg feed) of the same molecule?
Answer: 1.612^A g feed/g gain

Question: And the Feed intake ([1]; Day 1-36, 7.5 g/kg feed)?
Answer: 3870^A g

Question: What about the Weight gain ([1]; Day 1-36, 7.5 g/kg feed) of the same molecule?
Answer: 2404^A g

Question: And the Feed conversion ([1]; Day 1-36, 10 g/kg feed)?
Answer: 1.651^A g feed/g gain

Question: And the Feed intake ([1]; Day 1-36, 10 g/kg feed)?
Answer: 3868^A g

Question: And the Weight gain ([1]; Day 1-36, 10 g/kg feed)?
Answer: 2347^A g

Question: What about the Feed conversion ([1]; Day 22-36, 2.5 g/kg feed) of the same molecule?
Answer: 1.790^A g feed/g gain

Question: And the Feed intake ([1]; Day 22-36, 2.5 g/kg feed)?
Answer: 2392^A g

Question: What about the Weight gain ([1]; Day 22-36, 2.5 g/kg feed) of the same molecule?
Answer: 1337^A g

Question: What about the Feed conversion ([1]; Day 22-36, 5 g/kg feed) of the same molecule?
Answer: 1.786^A g feed/g gain

Question: And the Feed intake ([1]; Day 22-36, 5 g/kg feed)?
Answer: 2347^A g

Question: What about the Weight gain ([1]; Day 22-36, 5 g/kg feed) of the same molecule?
Answer: 1320^A g

Question: And the Feed conversion ([1]; Day 22-36, 7.5 g/kg feed)?
Answer: 1.806^A g feed/g gain

Question: What about the Feed intake ([1]; Day 22-36, 7.5 g/kg feed) of the same molecule?
Answer: 2431^A g

Question: What about the Weight gain ([1]; Day 22-36, 7.5 g/kg feed) of the same molecule?
Answer: 1350^A g

Question: And the Feed conversion ([1]; Day 22-36, 10 g/kg feed)?
Answer: 1.870^A g feed/g gain

Question: And the Feed intake ([1]; Day 22-36, 10 g/kg feed)?
Answer: 2442^A g

Question: What about the Weight gain ([1]; Day 22-36, 10 g/kg feed) of the same molecule?
Answer: 1311^A g

Question: And the “numerical improvement of weight gain compared to the control” value ([1]; 2.5 g per kg feed)?
Answer: 3.6%

Question: And the “numerical improvement of weight gain compared to the control” value ([1]; 7.5 g per kg feed)?
Answer: 4.5%

Question: And the “improvement of weight gain compared to the control” value ([1]; starter period (day 1-22), across the different inclusion levels)?
Answer: 3.9% to 10.5

Question: And the “DWG numerically higher than control group” value [6]?
Answer: 5%

Question: And the Weight gain ([6]; group B, n = 24)?
Answer: 6.57 ± 1.91 kg

Question: With `O=C(O)CC(O)(CC(=O)O)C(=O)O` [citric acid, reference compound] as the molecule, how does the MIC90 (Enterococcus faecalis) read?
Answer: < 31.2 mM

Question: What about the MIC90 (Clostridium perfringens) of the same molecule?
Answer: < 31.2 mM

Question: What about the MIC90 [3] of the same molecule?
Answer: < 31.2 mM

Question: What about the MIC90 [4] of the same molecule?
Answer: < 31.2 mM

Question: What about the MIC90 [5] of the same molecule?
Answer: < 31.2 mM
